Values joined by “and” are separate entries in the source; they are usually repeats but may differ in a detail not shown here. Equal values may be shown once.
Legend:
Details in all cases: incubation time: 72 h
[1] = test system: BT-549; assay: normalised viability (% of control), CellTiter-Blue; higher = more viable cells (about 100 = DMSO control)
Procedure, shortened: (§1)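 Breast cancer cell lines in 20 µl suspension were seeded onto 384-well plates pre-loaded with compound dissolved in 5 µl medium, then incubated 72 h. CellTiter-Blue reagent (2.5 µl) was added for 2 h at 37 °C and fluorescence read at 560/590 nm. Each plate was normalised to vehicle (100) and a positive kill control (0), with Z'-factor quality control. The value is normalised viability at one listed concentration of the series.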

[2] = test system: CAL-120; assay: as above
Procedure, shortened: as §1

[3] = test system: CAL-85-1; assay: as above
Procedure, shortened: as §1

[4] = test system: HDQ-P1; assay: as above
Procedure, shortened: as §1

[5] = test system: Hs578T; assay: as above
Procedure, shortened: as §1

[6] = test system: MDA-MB-436; assay: as above
Procedure, shortened: as §1

[7] = test system: BT-474; assay: drug sensitivity score (DSS), CellTiter-Glo (DSS (AUC-based score)); higher = stronger drug effect (viability inhibition or cytotoxicity); extreme values may be limits of the assay
Procedure, shortened: (§2)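 Each compound occupied 5 concentrations in 10-fold steps over its own 10,000-fold range in 384-well plates, into which breast cancer cell lines were seeded as 20 µl suspension. Following 72 h of incubation, CellTox Green fluorescence (485/520 nm) was measured, and CellTiter-Glo luminescence was measured after 10 min at room temperature. Plates were individually normalised to 0.1 % DMSO and a positive kill control. From the area under the fitted dose-response curve, a drug sensitivity score was calculated.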

[8] = test system: BT-549; assay: as above
Procedure, shortened: as §2

[9] = test system: CAL-120; assay: as above
Procedure, shortened: as §2

[10] = test system: CAL-148; assay: as above
Procedure, shortened: as §2

[11] = test system: CAL-51; assay: as above
Procedure, shortened: as §2

[12] = test system: CAL-85-1; assay: as above
Procedure, shortened: as §2

[13] = test system: DU-4475; assay: as above
Procedure, shortened: as §2

[14] = test system: HCC1143; assay: as above
Procedure, shortened: as §2

[15] = test system: HCC1599; assay: as above
Procedure, shortened: as §2

[16] = test system: HCC1937; assay: as above
Procedure, shortened: as §2

[17] = test system: HDQ-P1; assay: as above
Procedure, shortened: as §2

[18] = test system: Hs578T; assay: as above
Procedure, shortened: as §2

[19] = test system: MCF-10A; assay: as above
Procedure, shortened: as §2

[20] = test system: MDA-MB-231; assay: as above
Procedure, shortened: as §2

[21] = test system: MDA-MB-436; assay: as above
Procedure, shortened: as §2

[22] = test system: MDA-MB-453; assay: as above
Procedure, shortened: as §2

[23] = test system: MDA-MB-468; assay: as above
Procedure, shortened: as §2

[24] = test system: MFM-223; assay: as above
Procedure, shortened: as §2

[25] = test system: SK-BR-3; assay: as above
Procedure, shortened: as §2

Structure (SMILES) | normalised viability ([1]; 1000 nM) | drug sensitivity score [7] | drug sensitivity score [8] | drug sensitivity score [9] | drug sensitivity score [10] | drug sensitivity score [11] | drug sensitivity score [12] | drug sensitivity score [13] | drug sensitivity score [14] | drug sensitivity score [15] | drug sensitivity score [16] | drug sensitivity score [17] | drug sensitivity score [18] | drug sensitivity score [19] | drug sensitivity score [20] | drug sensitivity score [21] | drug sensitivity score [22] | drug sensitivity score [23] | drug sensitivity score [24] | drug sensitivity score [25] | further results
CCNC(=O)c1noc(-c2cc(C(C)C)c(O)cc2O)c1-c1ccc(CN2CCOCC2)cc1 [NVP-AUY922] | 31.7% | 13 | 14.1 | 9.4 | 12.5 | 15.7 | 14.1 | 17.8 | 11.2 | 3.99 | 13.8 | 17.4 | 11 | 16.2 | 13.3 | 14.8 | 12.4 | 21.8 | 14.9 | 16.7 | normalised viability ([1]; 1 nM): 113%; normalised viability ([1]; 100 nM): 29.3%; normalised viability ([2]; 1 nM): 101%; normalised viability ([2]; 100 nM): 18.9%; normalised viability ([2]; 1000 nM): 17.1%; normalised viability ([3]; 0.3 nM): 101%; normalised viability ([3]; 3 nM): 96.8%; normalised viability ([3]; 10 nM): 102%; normalised viability ([4]; 0.3 nM): 94%; normalised viability ([4]; 3 nM): 97.8%; normalised viability ([4]; 10 nM): 64.9%; normalised viability ([5]; 1 nM): 110%; normalised viability ([5]; 100 nM): 44.1%; normalised viability ([5]; 1000 nM): 37.2%; normalised viability ([6]; 1 nM): 111%; normalised viability ([6]; 100 nM): 11.2%; normalised viability ([6]; 1000 nM): 19.9%
CCN(CC)CCCC(C)Nc1ccnc2cc(Cl)ccc12 (centres undefined) [Chloroquine] | – | 9.59 | 9.55 | 11.1 | 10.1 | 13.3 | 11 | 8.35 | 4.28 | 9.72 | 9.1 | 7.81 | 5.84 | 8.64 | 9.09 | 9.03 | 15.7 | 10.8 | 9.76 | 14.7 | normalised viability ([1]; 0.99 nM): 88.3%; normalised viability ([1]; 99 nM): 95.6%; normalised viability ([1]; 990 nM): 108%; normalised viability ([2]; 0.99 nM): 96.1%; normalised viability ([2]; 99 nM): 104%; normalised viability ([2]; 990 nM): 105%; normalised viability ([3]; 0.297 nM): 95.5%; normalised viability ([3]; 2.97 nM): 90%; normalised viability ([3]; 9.9 nM): 97%; normalised viability ([4]; 0.297 nM): 107%; normalised viability ([4]; 2.97 nM): 113%; normalised viability ([4]; 9.9 nM): 116%; normalised viability ([5]; 0.99 nM): 92%; normalised viability ([5]; 99 nM): 106%; normalised viability ([5]; 990 nM): 93.1%; normalised viability ([6]; 0.99 nM): 133%; normalised viability ([6]; 99 nM): 104%; normalised viability ([6]; 990 nM): 141%
O=C(CCCCCCC(=O)Nc1ccccc1)NO [Vorinostat] | 89.2% and 82.3% | 4.8 | 1.14 | 3.27 | 5.5 | 8.31 | 4.06 | 5.43 | 4.04 | 4.43 | 3.4 | 2.32 | 2.53 | 1.17 | 5.59 | 0 | 10.6 | 8.49 | 3.32 | 5.14 | normalised viability ([1]; 10 nM): 108% and 102%; normalised viability ([1]; 10000 nM): 48% and 33.2%; normalised viability ([2]; 10 nM): 92.3% and 99.7%; normalised viability ([2]; 1000 nM): 65.1% and 68.3%; normalised viability ([2]; 10000 nM): 11.5% and 18.7%; normalised viability ([3]; 3 nM): 91% and 103%; normalised viability ([3]; 30 nM): 85.7% and 96.9%; normalised viability ([3]; 100 nM): 100% and 106%; normalised viability ([4]; 3 nM): 99.4% and 88.7%; normalised viability ([4]; 30 nM): 97.2% and 84.3%; normalised viability ([4]; 100 nM): 95.6% and 87.5%; normalised viability ([5]; 10 nM): 111% and 118%; normalised viability ([5]; 1000 nM): 88.4% and 87%; normalised viability ([5]; 10000 nM): 12.3% and 11.5%; normalised viability ([6]; 10 nM): 105% and 104%; normalised viability ([6]; 10000 nM): 41.3% and 40.6%
CC(=O)[C@]1(O)Cc2c(O)c3c(c(O)c2[C@@H](O[C@H]2C[C@H](N)[C@H](O)[C@H](C)O2)C1)C(=O)c1ccccc1C3=O [Idarubicin] | 9.06% | 4.44 | 9.35 | 1.91 | 10.5 | 14.5 | 6.75 | 8.12 | 3.11 | 3.71 | 2.31 | 1.38 | 6.15 | 3.11 | 4.79 | 8.24 | 1.75 | 9.11 | 3.67 | 7.9 | normalised viability ([1]; 1 nM): 108%; normalised viability ([1]; 100 nM): 50%; normalised viability ([2]; 1 nM): 108%; normalised viability ([2]; 100 nM): 40.7%; normalised viability ([2]; 1000 nM): 11.1%; normalised viability ([3]; 0.3 nM): 104%; normalised viability ([3]; 3 nM): 91.9%; normalised viability ([3]; 10 nM): 94.3%; normalised viability ([4]; 0.3 nM): 118%; normalised viability ([4]; 3 nM): 120%; normalised viability ([4]; 10 nM): 104%; normalised viability ([5]; 1 nM): 107%; normalised viability ([5]; 100 nM): 57.1%; normalised viability ([5]; 1000 nM): 5.7%; normalised viability ([6]; 1 nM): 113%; normalised viability ([6]; 100 nM): 57.5%; normalised viability ([6]; 1000 nM): 18.8%
CO[C@@H]1[C@H](N(C)C(=O)c2ccccc2)C[C@H]2O[C@]1(C)n1c3ccccc3c3c4c(c5c6ccccc6n2c5c31)C(=O)NC4 [Midostaurin] | 59.5% | 10.5 | 13.8 | 9.74 | 0 | 15.9 | 2.25 | 9.68 | 8.75 | 0 | 7.38 | 6.88 | 15.7 | 17 | 10.8 | 3.96 | 0 | 14.6 | 3.44 | 7.66 | normalised viability ([1]; 10 nM): 80.4%; normalised viability ([1]; 10000 nM): 18.7%; normalised viability ([2]; 10 nM): 126%; normalised viability ([2]; 1000 nM): 55.4%; normalised viability ([2]; 10000 nM): 44.9%; normalised viability ([3]; 3 nM): 112%; normalised viability ([3]; 30 nM): 111%; normalised viability ([3]; 100 nM): 103%; normalised viability ([4]; 3 nM): 84.7%; normalised viability ([4]; 30 nM): 95.7%; normalised viability ([4]; 100 nM): 96.8%; normalised viability ([5]; 10 nM): 129%; normalised viability ([5]; 1000 nM): 31%; normalised viability ([5]; 10000 nM): 15.6%; normalised viability ([6]; 10 nM): 94.2%; normalised viability ([6]; 1000 nM): 62.7%; normalised viability ([6]; 10000 nM): 57.2%
